Source: patent publication US20090156609A1, “TREATMENT OF POST-TRAUMATIC STRESS DISORDER WITH TETRAHYDROINDOLONE ARYLPIPERZAINE COMPOUNDS” (priority 2007, published 2009)
Where two headings read alike, the source gives them in different places.

What was measured:
C-57 mice = assay: Conditioned avoidance response (CAR) model; type: in vivo
Source text: The Condition Avoidance Responding (CAR, active avoidance) model is a measure of cognitive and attention impairment. It evaluates the disruption of avoidance (increased latency) without disruption of escape (extrapyramidal motor function).
The training of C-57 mice consists of 20 trials with variable inter-trial intervals (trained to 80% Avoidance Criteria). After a one-minute acclimation period, the house light and an acoustic 90 decibel tone (conditioned stimuli) are presented. A response (crossing to dark compartment) within 5 seconds ends the trial and trial is recorded as avoidance response (CAR). […] To avoid shock, animals learn to move from the lighted side of the − chamber to the dark side when the cue is presented (avoidance) or moved when the shock is administered (escape). Compounds that disrupt cognition in the CAR model can be excluded from candidate consideration.
The present compounds were tested in the conditioned avoidance response (CAR) model and in the Spontaneous Activity model described above.

Male C57 mice = assay: PCP-induced disruption of prepulse inhibition (PPI) of the startle response; type: in vivo; settings: for minimal effective dose: Mus musculus, 20 minutes prior to PCP 5 mg/kg IP, read-out: Effective Dose, Prepulse Inhibition Testing
Source text: The phencyclidine (PCP)-induced disruption of pre-pulse inhibition (PPI) has been used to predict efficacy in cognitive impairment and other disorders. In this test, a weaker auditory prestimulus (prepulse) inhibits the reaction of an test organism to a subsequent strong startle stimulus (pulse). Normal PPI functioning in mammals is critical in filtering out irrelevant sensory information, an inhibitory process that is affected in patients with PTSD. A reduction of the cognitive/attention impairment produced in the PPI model can be used as an efficacy measure for compound candidate selection.
For testing of PPI, male C57 mice can be assigned to five dose groups of eight animals per group, and vehicle or test compound can then be administered orally (PO) or subcutaneously (SC) 20 minutes prior to intraperitoneal (IP) administration of vehicle or PCP (5 mg/kg). Ten minutes following PCP administration, the mice are placed into Hamilton-Kinder startle chambers and evaluation of pre-pulse inhibition procedure is performed. Following a five-minute acclimatization period with background white noise (65 decibels), mice were exposed to five different trial types. Trials were presented […] in a quasi-random order, with randomized 5 to 25 second inter-trial intervals. Trials were: stimulus only trial (120 decibel white noise, 50 ms stimulus); two different prepulse+pulse trials in which a 20 ms 5 decibel, or 10 decibel stimuli above a 65 decibel background preceded the 120 decibel pulse by 120 ms; a 10 decibel prepulse without a 120 decibel pulse; and a no stimulus trial, in which only the background noise was presented.
Compounds which are observed to reduce and/or reverse PCP-induced impairment can be selected as candidates for further evaluation. Such reduction is also indicative of memory enhancement, which is also a positive indicator for further development.
Male C57 mice were assigned to five dose groups of eight animals per group, and vehicle or a test compound was administered orally or subcutaneously 20 minutes prior to intraperitoneal administration of vehicle or PCP (5 mg/kg). Ten minutes following PCP administration, the mice were placed into Kinder Scientific startle chambers (Kinder Scientific, Poway, Calif.) and pre-pulse inhibition was evaluated. Following a five-minute acclimatization period with background white noise (65 dB), mice were exposed to five different trial types. Trials were presented in a quasi-random order, with randomized 5 to 25 second inter-trial intervals. The five different trials (presented 10 times each were): stimulus only trial (120 dB white noise, 50 ms stimulus); two different prepulse+pulse trials in which a 20 ms 5 dB or 10 dB stimulus above a 65 dB background preceded the 120 dB pulse by 120 ms; a 10 dB prepulse without a 120 dB pulse; and a no stimulus trial, in which only the background noise was presented.

[1] = Neuromuscular coordination (rotarod); design: species or system mice; settings: male, Swiss Webster (CFW), mouse, in vivo, sc; subcutaneous administration, tested 30 minutes after dosing; read-out: ED50 (ability to remain on the rotarod)
Protocol: This model can be used to determine the dose of a compound or composition at which unwanted side effects (muscle tone/motor coordination deficits) occur. Animals (C57 Mice) are placed on a rotarod treadmill (model V EE/85, Columbus Instruments, Columbus, Ohio) accelerating from 1 to 80 revolutions/4 minutes. All mice are given two control trials at least 12 hours before oral administration evaluation of compounds. Mice are tested on the rotarod 30 minutes after administration of compounds. The number of seconds each mouse remained on the rotarod is recorded.
Doses at which the coordination of an animal is decreased or at which its motor function is altered, such that the ability of the animal to remain on the rotarod is reduced, are determined. Doses below this are selected for further evaluation.
Male Swiss Webster (CFW) mice were placed on a rotarod (model V EE/85, Columbus Instruments, Columbus, Ohio) accelerating from 1 to 80 revolutions/4 minutes. All mice were given two control trials at least 12 hours before administration of the present compounds for evaluation. Mice were tested on the rotarod 30 minutes after subcutaneous administration of compounds. The number of seconds each mouse remained on the rotarod was recorded. Compounds that decreased coordination or altered motor function reduced the ability of the animal to remain on the rotarod.

C57/BL6 male mice = assay: Contextual fear conditioning in an open field model; type: in vivo; settings: 3.0 mg/kg subcutaneously for 10 consecutive days, tested day 16 after 5 day wash out
Protocol: Response to the development of contextual fear conditioning in an open field model, a model for PTSD, was evaluated in C57/BL6 male mice using the Kinder Scientific MotorMonitor System (Version 3.11, Kinder Scientific, Poway, Calif.). On Day 1 (Trauma Induction Day), animals were pretreated with compound 30 minutes prior to trauma induction and placed in a cage with a shock-grid floor. Locomotor activity was evaluated by an automated open field system with infrared photo-beams. The mice were placed in the center of the cage and the following variables of motor activity were recorded: locomotor activity, fine movement, and rearing. Animals were placed in the chamber for a total of 300 seconds. After 230 seconds, a 10 second, 2.0 mA electric footshock was administered. Mice remained in the chamber for an additional minute. Mice were then injected subcutaneously for 10 consecutive days (starting 24 hours post trauma induction) with either Compound A (3.0 mg/kg) or vehicle. On day 16, following a 5 day wash out period, mice were exposed to the traumatic environment without shock for 5 minutes. Total ambulatory activity was compared between Day 1 and Day 16.

effect in the CAR model compared to vehicle treated mice (C-57 mice; subcutaneous, doses of up to 10 mg/kg): did not produce any effect
SMILES: O=C1CCCc2c1ccn2CCN1CCN(c2cccc(Cl)c2)CC1 [Compound A, 1-{2-[4-(3-Chlorophenyl)piperazin-1-yl]ethyl}-1,5,6,7-tetrahydroindol-4-one]
minimum effective dose, Conditioned Avoidance Response (C-57 mice; models unwanted side effects): >10 mg/kg
minimal effective dose (Male C57 mice; sc, subcutaneous): 3 mg/kg
minimal effective dose (Male C57 mice; oral): 1 mg/kg
prepulse inhibition versus control levels (FIG. 1) (Male C57 mice; doses of 10 mg/kg, PCP-induced disruption): inhibition was returned to control levels
minimum effective dose, Prepulse Inhibition (PPI) (Male C57 mice; reversal of PCP-induced disruption, route not given): 3 mg/kg
ED50 at 30 min [1]: 23 mg/kg
suppressed basic movements compared to vehicle treated animals (FIG. 2) (C57/BL6 male mice): displayed a reduction in suppressed basic movements
